Measurements taken from ChEMBL document CHEMBL5131391, “One-pot three-component synthesis of novel pyrazolo[3,4-b]pyridines as potent antileukemic agents” (Eur J Med Chem, 2022).

System: K562
Assay: Antiproliferative activity against human K562 cells assessed as reduction in cell viability incubated for 72 hrs by resazurin dye based assay
Type: functional
Conditions: K562, 72 h

| SMILES | IC50 |
| --- | --- |
| N#Cc1c(-c2ccco2)nc2c(c(-c3ccccc3)nn2-c2ccccc2)c1-c1ccc(O)cc1 | 4.2 µM |

System: RPMI-8226
Assay: Antiproliferative activity against human RPMI-8226 cells assessed as growth inhibition at 10 uM measured after 48 hrs by NCI protocol based SRB assay relative to control
Type: functional
Conditions: read-out: GI

| SMILES | inhibition of growth at 10 µM |
| --- | --- |
| N#Cc1c(-c2ccco2)nc2c(c(-c3ccccc3)nn2-c2ccccc2)c1-c1ccc(O)cc1 | 45% |

System: MOLT-4
Assay: Antiproliferative activity against human MOLT-4 cells assessed as growth inhibition at 10 uM measured after 48 hrs by NCI protocol based SRB assay relative to control
Type: functional
Conditions: read-out: GI

| SMILES | inhibition of growth at 10 µM |
| --- | --- |
| N#Cc1c(-c2ccco2)nc2c(c(-c3ccccc3)nn2-c2ccccc2)c1-c1ccc(O)cc1 | 91% |

System: HL-60(TB)
Assay: Antiproliferative activity against human HL-60(TB) cells assessed as growth inhibition at 10 uM measured after 48 hrs by NCI protocol based SRB assay relative to control
Type: functional
Conditions: read-out: GI

| SMILES | inhibition of growth at 10 µM |
| --- | --- |
| N#Cc1c(-c2ccco2)nc2c(c(-c3ccccc3)nn2-c2ccccc2)c1-c1ccc(O)cc1 | 78% |

System: K562
Assay: Antiproliferative activity against human K562 cells assessed as growth inhibition at 10 uM measured after 48 hrs by NCI protocol based SRB assay relative to control
Type: functional
Conditions: read-out: GI

| SMILES | inhibition of growth at 10 µM |
| --- | --- |
| N#Cc1c(-c2ccco2)nc2c(c(-c3ccccc3)nn2-c2ccccc2)c1-c1ccc(O)cc1 | 85% |

System: HOP-92
Assay: Antiproliferative activity against human HOP-92 cells assessed as growth inhibition at 10 uM measured after 48 hrs by NCI protocol based SRB assay relative to control
Type: functional
Conditions: read-out: GI

| SMILES | inhibition of growth at 10 µM |
| --- | --- |
| N#Cc1c(-c2ccco2)nc2c(c(-c3ccccc3)nn2-c2ccccc2)c1-c1ccc(O)cc1 | 24% |

System: A549
Assay: Antiproliferative activity against human A549 cells assessed as growth inhibition at 10 uM measured after 48 hrs by NCI protocol based SRB assay relative to control
Type: functional
Conditions: read-out: GI

| SMILES | inhibition of growth at 10 µM |
| --- | --- |
| N#Cc1c(-c2ccco2)nc2c(c(-c3ccccc3)nn2-c2ccccc2)c1-c1ccc(O)cc1 | 54% |

System: EKVX
Assay: Antiproliferative activity against human EKVX cells assessed as growth inhibition at 10 uM measured after 48 hrs by NCI protocol based SRB assay relative to control
Type: functional
Conditions: read-out: GI

| SMILES | inhibition of growth at 10 µM |
| --- | --- |
| N#Cc1c(-c2ccco2)nc2c(c(-c3ccccc3)nn2-c2ccccc2)c1-c1ccc(O)cc1 | 44% |

System: NCI-H460
Assay: Antiproliferative activity against human NCI-H460 cells assessed as growth inhibition at 10 uM measured after 48 hrs by NCI protocol based SRB assay relative to control
Type: functional
Conditions: read-out: GI

| SMILES | inhibition of growth at 10 µM |
| --- | --- |
| N#Cc1c(-c2ccco2)nc2c(c(-c3ccccc3)nn2-c2ccccc2)c1-c1ccc(O)cc1 | 51% |

System: NCI-H522
Assay: Antiproliferative activity against human NCI-H522 cells assessed as growth inhibition at 10 uM measured after 48 hrs by NCI protocol based SRB assay relative to control
Type: functional
Conditions: read-out: GI

| SMILES | inhibition of growth at 10 µM |
| --- | --- |
| N#Cc1c(-c2ccco2)nc2c(c(-c3ccccc3)nn2-c2ccccc2)c1-c1ccc(O)cc1 | 81% |

System: NCI-H322M
Assay: Antiproliferative activity against human NCI-H322M cells assessed as growth inhibition at 10 uM measured after 48 hrs by NCI protocol based SRB assay relative to control
Type: functional
Conditions: read-out: GI

| SMILES | inhibition of growth at 10 µM |
| --- | --- |
| N#Cc1c(-c2ccco2)nc2c(c(-c3ccccc3)nn2-c2ccccc2)c1-c1ccc(O)cc1 | 19% |

System: HCT-15
Assay: Antiproliferative activity against human HCT-15 cells assessed as growth inhibition at 10 uM measured after 48 hrs by NCI protocol based SRB assay relative to control
Type: functional
Conditions: read-out: GI

| SMILES | inhibition of growth at 10 µM |
| --- | --- |
| N#Cc1c(-c2ccco2)nc2c(c(-c3ccccc3)nn2-c2ccccc2)c1-c1ccc(O)cc1 | 62% |

System: SW-620
Assay: Antiproliferative activity against human SW-620 cells assessed as growth inhibition at 10 uM measured after 48 hrs by NCI protocol based SRB assay relative to control
Type: functional
Conditions: read-out: GI

| SMILES | inhibition of growth at 10 µM |
| --- | --- |
| N#Cc1c(-c2ccco2)nc2c(c(-c3ccccc3)nn2-c2ccccc2)c1-c1ccc(O)cc1 | 53% |

System: SF-268
Assay: Antiproliferative activity against human SF-268 cells assessed as growth inhibition at 10 uM measured after 48 hrs by NCI protocol based SRB assay relative to control
Type: functional
Conditions: read-out: GI

| SMILES | inhibition of growth at 10 µM |
| --- | --- |
| N#Cc1c(-c2ccco2)nc2c(c(-c3ccccc3)nn2-c2ccccc2)c1-c1ccc(O)cc1 | 33% |

System: SNB-75
Assay: Antiproliferative activity against human SNB-75 cells assessed as growth inhibition at 10 uM measured after 48 hrs by NCI protocol based SRB assay relative to control
Type: functional
Conditions: read-out: GI

| SMILES | inhibition of growth at 10 µM |
| --- | --- |
| N#Cc1c(-c2ccco2)nc2c(c(-c3ccccc3)nn2-c2ccccc2)c1-c1ccc(O)cc1 | 29% |

System: U-251
Assay: Antiproliferative activity against human U-251 cells assessed as growth inhibition at 10 uM measured after 48 hrs by NCI protocol based SRB assay relative to control
Type: functional
Conditions: read-out: GI

| SMILES | inhibition of growth at 10 µM |
| --- | --- |
| N#Cc1c(-c2ccco2)nc2c(c(-c3ccccc3)nn2-c2ccccc2)c1-c1ccc(O)cc1 | 39% |

System: M14
Assay: Antiproliferative activity against human M14 cells assessed as growth inhibition at 10 uM measured after 48 hrs by NCI protocol based SRB assay relative to control
Type: functional
Conditions: read-out: GI

| SMILES | inhibition of growth at 10 µM |
| --- | --- |
| N#Cc1c(-c2ccco2)nc2c(c(-c3ccccc3)nn2-c2ccccc2)c1-c1ccc(O)cc1 | 35% |

System: SK-MEL-5
Assay: Antiproliferative activity against human SK-MEL-5 cells assessed as growth inhibition at 10 uM measured after 48 hrs by NCI protocol based SRB assay relative to control
Type: functional
Conditions: read-out: GI

| SMILES | inhibition of growth at 10 µM |
| --- | --- |
| N#Cc1c(-c2ccco2)nc2c(c(-c3ccccc3)nn2-c2ccccc2)c1-c1ccc(O)cc1 | 13% |

System: SK-MEL-28
Assay: Antiproliferative activity against human SK-MEL-28 cells assessed as growth inhibition at 10 uM measured after 48 hrs by NCI protocol based SRB assay relative to control
Type: functional
Conditions: read-out: GI

| SMILES | inhibition of growth at 10 µM |
| --- | --- |
| N#Cc1c(-c2ccco2)nc2c(c(-c3ccccc3)nn2-c2ccccc2)c1-c1ccc(O)cc1 | 24% |

System: UACC-62
Assay: Antiproliferative activity against human UACC-62 cells assessed as growth inhibition at 10 uM measured after 48 hrs by NCI protocol based SRB assay relative to control
Type: functional
Conditions: read-out: GI

| SMILES | inhibition of growth at 10 µM |
| --- | --- |
| N#Cc1c(-c2ccco2)nc2c(c(-c3ccccc3)nn2-c2ccccc2)c1-c1ccc(O)cc1 | 11% |

System: UACC-257
Assay: Antiproliferative activity against human UACC-257 cells assessed as growth inhibition at 10 uM measured after 48 hrs by NCI protocol based SRB assay relative to control
Type: functional
Conditions: read-out: GI

| SMILES | inhibition of growth at 10 µM |
| --- | --- |
| N#Cc1c(-c2ccco2)nc2c(c(-c3ccccc3)nn2-c2ccccc2)c1-c1ccc(O)cc1 | 40% |

System: OVCAR-8
Assay: Antiproliferative activity against human OVCAR-8 cells assessed as growth inhibition at 10 uM measured after 48 hrs by NCI protocol based SRB assay relative to control
Type: functional
Conditions: read-out: GI

| SMILES | inhibition of growth at 10 µM |
| --- | --- |
| N#Cc1c(-c2ccco2)nc2c(c(-c3ccccc3)nn2-c2ccccc2)c1-c1ccc(O)cc1 | 45% |

System: NCI/ADR-RES
Assay: Antiproliferative activity against human NCl/ADR-RES cells assessed as growth inhibition at 10 uM measured after 48 hrs by NCI protocol based SRB assay relative to control
Type: functional
Conditions: read-out: GI

| SMILES | inhibition of growth at 10 µM |
| --- | --- |
| N#Cc1c(-c2ccco2)nc2c(c(-c3ccccc3)nn2-c2ccccc2)c1-c1ccc(O)cc1 | 24% |

System: 786-0
Assay: Antiproliferative activity against human 786-0 cells assessed as growth inhibition at 10 uM measured after 48 hrs by NCI protocol based SRB assay relative to control
Type: functional
Conditions: read-out: GI

| SMILES | inhibition of growth at 10 µM |
| --- | --- |
| N#Cc1c(-c2ccco2)nc2c(c(-c3ccccc3)nn2-c2ccccc2)c1-c1ccc(O)cc1 | 41% |

System: CAKI-1
Assay: Antiproliferative activity against human CAKI-1 cells assessed as growth inhibition at 10 uM measured after 48 hrs by NCI protocol based SRB assay relative to control
Type: functional
Conditions: read-out: GI

| SMILES | inhibition of growth at 10 µM |
| --- | --- |
| N#Cc1c(-c2ccco2)nc2c(c(-c3ccccc3)nn2-c2ccccc2)c1-c1ccc(O)cc1 | 42% |

System: PC-3
Assay: Antiproliferative activity against human PC-3 cells assessed as growth inhibition at 10 uM measured after 48 hrs by NCI protocol based SRB assay relative to control
Type: functional
Conditions: read-out: GI

| SMILES | inhibition of growth at 10 µM |
| --- | --- |
| N#Cc1c(-c2ccco2)nc2c(c(-c3ccccc3)nn2-c2ccccc2)c1-c1ccc(O)cc1 | 77% |

System: DU-145
Assay: Antiproliferative activity against human DU-145 cells assessed as growth inhibition at 10 uM measured after 48 hrs by NCI protocol based SRB assay relative to control
Type: functional
Conditions: read-out: GI

| SMILES | inhibition of growth at 10 µM |
| --- | --- |
| N#Cc1c(-c2ccco2)nc2c(c(-c3ccccc3)nn2-c2ccccc2)c1-c1ccc(O)cc1 | 25% |

System: MDA-MB-231
Assay: Antiproliferative activity against human MDA-MB-231 cells assessed as growth inhibition at 10 uM measured after 48 hrs by NCI protocol based SRB assay relative to control
Type: functional
Conditions: read-out: GI

| SMILES | inhibition of growth at 10 µM |
| --- | --- |
| N#Cc1c(-c2ccco2)nc2c(c(-c3ccccc3)nn2-c2ccccc2)c1-c1ccc(O)cc1 | 18% |

System: MCF7
Assay: Antiproliferative activity against human MCF7 cells assessed as growth inhibition at 10 uM measured after 48 hrs by NCI protocol based SRB assay relative to control
Type: functional
Conditions: read-out: GI

| SMILES | inhibition of growth at 10 µM |
| --- | --- |
| N#Cc1c(-c2ccco2)nc2c(c(-c3ccccc3)nn2-c2ccccc2)c1-c1ccc(O)cc1 | 53% |

System: T47D
Assay: Antiproliferative activity against human T47D cells assessed as growth inhibition at 10 uM measured after 48 hrs by NCI protocol based SRB assay relative to control
Type: functional
Conditions: read-out: GI

| SMILES | inhibition of growth at 10 µM |
| --- | --- |
| N#Cc1c(-c2ccco2)nc2c(c(-c3ccccc3)nn2-c2ccccc2)c1-c1ccc(O)cc1 | 82% |

System: Hs-578T
Assay: Antiproliferative activity against human Hs-578T cells assessed as growth inhibition at 10 uM measured after 48 hrs by NCI protocol based SRB assay relative to control
Type: functional
Conditions: read-out: GI

| SMILES | inhibition of growth at 10 µM |
| --- | --- |
| N#Cc1c(-c2ccco2)nc2c(c(-c3ccccc3)nn2-c2ccccc2)c1-c1ccc(O)cc1 | 47% |

System: MV4-11
Assay: Antiproliferative activity against human MV4-11 cells assessed as reduction in cell viability incubated for 72 hrs by resazurin dye based assay
Type: functional
Conditions: MV4-11, 72 h

| SMILES | IC50 |
| --- | --- |
| N#Cc1c(-c2ccco2)nc2c(c(-c3ccccc3)nn2-c2ccccc2)c1-c1ccc(O)cc1 | 13.8 µM |
